Data: PMC7216583 (Parasites & Vectors, 2020)
Counter-ions that a name gives are not always drawn. Like-named read-outs stand apart in the source and are kept apart here.

Experiments:
HIV-2 ROD = test system: HIV-2 ROD; parameters: method as in S-inhibitor; conditions: ref S-inhibitor; cited from earlier work
HIV-1 IIIB = test system: HIV-1 IIIB; parameters: method as in S-inhibitor; conditions: ref S-inhibitor; cited from earlier work
[1] = test system: Toxoplasma gondii RH-2F tachyzoites; experiment: microbe, parasite or virus in culture; conditions: 72 h
HIV-2 EHO = test system: HIV-2 EHO; parameters: method as in S-inhibitor; conditions: ref S-inhibitor; cited from earlier work
Src = test system: Src; parameters: method as in S-inhibitor; conditions: ref S-inhibitor; cited from earlier work
EphB4 = test system: EphB4; parameters: method as in S-inhibitor; conditions: ref S-inhibitor; cited from earlier work
VEGFR2 = test system: VEGFR2; parameters: method as in S-inhibitor; conditions: ref S-inhibitor; cited from earlier work
c-Raf = test system: c-Raf; parameters: method as in S-inhibitor; conditions: ref S-inhibitor; cited from earlier work
Abl = test system: Abl; parameters: method as in S-inhibitor; conditions: ref S-inhibitor; read-out: IC50, c-Abl; cited from earlier work
alkaline phosphatase = conditions: read-out: IC50, alkaline phosphatase; one value printed for both enzymes; ref S-inhibitor; cited from earlier work
(Na,K)-ATPase = target: (Na,K)-ATPase; parameters: method as in S-inhibitor; conditions: one value printed for both enzymes; ref S-inhibitor; cited from earlier work
[2] = test system: Toxoplasma gondii RH-2F tachyzoites; conditions: preliminary screen, mean
MX1 = test system: MX1; parameters: method as in S-inhibitor; conditions: ref S-inhibitor; read-out: IC50, MX1 cell line; cited from earlier work
SKOV3 = test system: SKOV3; parameters: method as in S-inhibitor; conditions: ref S-inhibitor; read-out: IC50, SKOV3 cell line; cited from earlier work
Colo205 = test system: Colo205; parameters: method as in S-inhibitor; conditions: ref S-inhibitor; read-out: IC50, Colo205 cell line; cited from earlier work
P388 = test system: P388; parameters: method as in S-inhibitor; conditions: ref S-inhibitor; read-out: IC50, P388 cell line; cited from earlier work
MV522 = test system: MV522; parameters: method as in S-inhibitor; conditions: ref S-inhibitor; read-out: IC50, MV522 cell line; cited from earlier work
D4 receptor = conditions: read-out: Ki, D4 receptor; ref S-inhibitor; cited from earlier work
D2L receptor = conditions: read-out: Ki, D2L receptor; ref S-inhibitor; cited from earlier work
D3 receptor = conditions: read-out: Ki, D3 receptor; ref S-inhibitor; cited from earlier work
D2S receptor = conditions: read-out: Ki, D2S receptor; ref S-inhibitor; cited from earlier work
PARP1 = target: PARP1; parameters: method as in S-inhibitor; conditions: ref S-inhibitor; cited from earlier work
in vitro = conditions: human, Host viability (%) mean
dopamine D2 = target: dopamine D2; parameters: method as in S-inhibitor; conditions: ref S-inhibitor; cited from earlier work
5-HT2 receptor = target: 5-HT2 receptor; parameters: method as in S-inhibitor; conditions: ref S-inhibitor; read-out: Ki, serotonin 5-HT2; cited from earlier work
[3] = test system: voltage-gated sodium channels; parameters: method as in S-inhibitor; conditions: ref S-inhibitor; cited from earlier work
smoothened [4] = test system: smoothened; parameters: method as in S-inhibitor; conditions: mouse; ref S-inhibitor; cited from earlier work
smoothened [5] = test system: smoothened; parameters: method as in S-inhibitor; conditions: human; ref S-inhibitor; cited from earlier work
FAK = conditions: read-out: IC50, FAK; ref S-inhibitor; cited from earlier work
HER2/ErbB2 = test system: HER2/ErbB2; parameters: method as in S-inhibitor; conditions: ref S-inhibitor; cited from earlier work
ErbB3 = test system: ErbB3; parameters: method as in S-inhibitor; conditions: ref S-inhibitor; cited from earlier work
ErbB4 = test system: ErbB4; parameters: method as in S-inhibitor; conditions: ref S-inhibitor; cited from earlier work
EGFR [6] = test system: EGFR; parameters: method as in S-inhibitor; conditions: ref S-inhibitor; cited from earlier work
ALK5 = conditions: read-out: IC50, ALK5; ref S-inhibitor; cited from earlier work
ALK4 = test system: ALK4; parameters: method as in S-inhibitor; conditions: ref S-inhibitor; cited from earlier work
PDE4 = test system: PDE4; parameters: method as in S-inhibitor; conditions: ref S-inhibitor; cited from earlier work
[7] = target: serotonin-norepinephrine reuptake; conditions: read-out: Ki, serotonin-norepinephrine reuptake inhibitor; ref S-inhibitor; cited from earlier work
CDK1/cyclin B = test system: CDK1/cyclin B; parameters: method as in S-inhibitor; conditions: ref S-inhibitor; cited from earlier work
CDK2/cyclin E = test system: CDK2/cyclin E; parameters: method as in S-inhibitor; conditions: ref S-inhibitor; cited from earlier work
glucokinase (GK) = target: glucokinase (GK); parameters: method as in S-inhibitor; conditions: ref S-inhibitor; read-out: EC50, glucokinase activation; cited from earlier work
If = test system: If; parameters: method as in S-inhibitor; conditions: ref S-inhibitor; cited from earlier work
ERβ = test system: ERβ; parameters: method as in S-inhibitor; conditions: ref S-inhibitor; read-out: IC50, ERβ binding; cited from earlier work
ERα = conditions: read-out: IC50, ERα binding; ref S-inhibitor; cited from earlier work
EGFR [8] = test system: EGFR; parameters: method as in library vendor description; conditions: ref library vendor description; cited from earlier work
ErbB2 = test system: ErbB2; parameters: method as in library vendor description; conditions: ref library vendor description; cited from earlier work
S217Q PFV IN = test system: S217Q PFV IN; parameters: method as in S-inhibitor; conditions: ref S-inhibitor; cited from earlier work
WT PFV IN = test system: WT PFV IN; parameters: method as in S-inhibitor; conditions: ref S-inhibitor; cited from earlier work
FGFR1 = test system: FGFR1; parameters: method as in S-inhibitor; conditions: ref S-inhibitor; cited from earlier work
FGFR3 = test system: FGFR3; parameters: method as in S-inhibitor; conditions: ref S-inhibitor; cited from earlier work
MEK1/2 = test system: MEK1/2; parameters: method as in S-inhibitor; conditions: ref S-inhibitor; cited from earlier work
Flt4 = test system: Flt4; parameters: method as in S-inhibitor; conditions: ref S-inhibitor; cited from earlier work
V617F mutant JAK2 = test system: V617F mutant JAK2; parameters: method as in S-inhibitor; conditions: in Ba/F3 cells; ref S-inhibitor; cited from earlier work
[9] = read-out: Parasite inhibition (%) mean, preliminary screen, mean
[10] = read-out: Parasite inhibition (%) mean

SMILES: COc1cc2c(cc1Cc1cccc(Cl)c1F)c(=O)c(C(=O)O)cn2[C@H](CO)C(C)C [Elvitegravir (GS-9137)]
- IC50 (HIV-2 ROD): 1.4 nM
- IC50 (HIV-1 IIIB): 0.7 nM
- inhibition of growth at 5 µM [1, 9]: 0.7%
- IC50 (HIV-2 EHO): 2.8 nM

SMILES: Cc1ccc(C(=O)Nc2cccc(C(F)(F)F)c2)cc1Nc1nc(-c2cccnc2)nc2c1cnn2C [NVP-BHG712]
- IC50 (Src): 1270 nM
- ED50, EphB4 (EphB4): 25 nM
- inhibition of growth at 5 µM [1, 9]: -3.3%
- ED50, VEGFR2 (VEGFR2): 4200 nM
- IC50 (c-Raf): 395 nM
- IC50 (Abl): 1670 nM

SMILES: [Na+].[Na+].[Na+].[O]=[V]([O-])([O-])[O-] [Sodium orthovanadate]
- IC50 (alkaline phosphatase): 10000 nM
- IC50 ((Na,K)-ATPase): 10000 nM
- Parasite inhibition (%) mean [2]: 31.8%

SMILES: Cc1ccc(C(=O)N(CCCN)[C@@H](c2oc3cc(Cl)ccc3c(=O)c2Cc2ccccc2)C(C)C)cc1 [SB 743921]
- IC50 (MX1): 0.06 nM
- IC50 (SKOV3): 0.2 nM
- IC50 (Colo205): 0.07 nM
- IC50 (P388): 14.4 nM
- inhibition of growth at 5 µM [1, 9]: 0.5%
- IC50 (MV522): 1.7 nM

SMILES: CCCN[C@H]1CCc2nc(N)sc2C1 [Pramipexole 2HCl monohydrate]
- Ki (D4 receptor): 5.1 nM
- Ki (D2L receptor): 2.2 nM
- inhibition of growth at 5 µM [1, 10]: -9.5%
- Ki (D3 receptor): 0.5 nM

SMILES: CN(C)Cc1ccc(-c2nc3cccc4c3n2CCNC4=O)cc1 [AG14361]
- inhibition of growth at 5 µM [1, 9]: 28.9%
- Ki (PARP1): < 5 nM

SMILES: CCN1CCN(c2cc(-c3ccc(F)cc3)c3c(n2)CCCCCC3)CC1 [Blonanserin (Lonasen)]
- viability at 72 h (in vitro): 88.3%
- inhibition of growth at 5 µM [1, 9]: 82.1%
- Ki (dopamine D2): 14.8 nM
- Ki (5-HT2 receptor): 3.98 nM

SMILES: CCCOc1ccc(C(=O)OCCN(CC)CC)cc1N [Proparacaine HCl]
- inhibition of growth at 5 µM [1, 9]: 2.4%
- ED50, voltage-gated sodium channels [3]: Proparacaine HCl is a voltage-gated sodium channels antagonist with ED50 of 3.4 mM.

SMILES: Cc1c(C(=O)Nc2ccc(N3C[C@@H](C)O[C@@H](C)C3)nc2)cccc1-c1ccc(OC(F)(F)F)cc1 [LDE225 (NVP-LDE225, Erismodegib)]
- IC50 (smoothened [4]): 1.3 nM
- inhibition of growth at 5 µM [1, 9]: -3.8%
- IC50 (smoothened [5]): 2.5 nM

SMILES: CS(=O)(=O)c1cccc(CNc2nc(Nc3ccc4c(c3)CCC(=O)N4)ncc2C(F)(F)F)c1 [PF 573228]
- inhibition of growth at 5 µM [1, 9]: 5%
- IC50 (FAK): 4 nM

SMILES: CNC(=O)CN1CCC(Oc2cc3c(Nc4cccc(Cl)c4F)ncnc3cc2OC)CC1 [AZD8931]
- IC50 (HER2/ErbB2): 3 nM
- inhibition of growth at 5 µM [1, 9]: -20%
- IC50 (ErbB3): 4 nM

SMILES: C=CC(=O)Nc1ccc2ncnc(Nc3ccc(OCc4cccc(F)c4)c(Cl)c3)c2c1 [AST-1306]
- IC50 (ErbB4): 0.8 nM
- IC50 (EGFR [6]): 0.5 nM
- inhibition of growth at 5 µM [1, 9]: -33.7%

SMILES: Cc1cccc(-c2[nH]c(C(C)(C)C)nc2-c2ccc3c(c2)OCO3)n1 [SB-505124]
- IC50 (ALK5): 47 nM
- IC50 (ALK4): 129 nM
- inhibition of growth at 5 µM [1, 9]: -14.8%

SMILES: O=C(Nc1c(Cl)cncc1Cl)c1ccc(OC(F)F)c(OCC2CC2)c1 [Roflumilast (Daxas)]
- inhibition of growth at 5 µM [1, 9]: -0.2%
- IC50 (PDE4): 0.2 to 4.3 nM

SMILES: CNCC[C@H](Oc1cccc2ccccc12)c1cccs1 [Duloxetine HCl (Cymbalta)]
- inhibition of growth at 5 µM [1, 10]: 30.9%
- Ki [7]: 4.6 nM

SMILES: CCCCOc1c(C(=O)c2c(F)cc(C)cc2F)c[nH]c2nncc1-2 [BMS-265246]
- inhibition of growth at 5 µM [1, 9]: 7.3%
- IC50 (CDK1/cyclin B): 6 nM
- IC50 (CDK2/cyclin E): 9 nM

SMILES: O=C(Nc1ncc(SCCN2CCCC2)s1)[C@]1(c2ccc(S(=O)(=O)C3CC3)cc2)C[C@@H]1C1CCCCC1 [LY2608204]
- EC50 (glucokinase (GK)): 42 nM
- inhibition of growth at 5 µM [1, 10]: -25.9%

SMILES: COc1cc2c(cc1OC)CC(=O)N(CCCN(C)C[C@@H]1Cc3cc(OC)c(OC)cc31)CC2 [Ivabradine HCl (Procoralan)]
- inhibition of growth at 5 µM [1, 9]: 0.6%
- IC50 (If): 2900 nM

SMILES: Cc1c(-c2ccc(O)cc2)n(Cc2ccc(OCCN3CCCCCC3)cc2)c2ccc(O)cc12 [Bazedoxifene HCl]
- inhibition of growth at 5 µM [1, 9]: -12.8%

SMILES: C=CC(=O)Nc1cc2c(Nc3ccc(F)c(Cl)c3)ncnc2cc1OCCCN1CCOCC1 [CI-1033 (Canertinib)]
- inhibition of growth at 5 µM [1, 9]: -5.8%

SMILES: Cc1nnc(C(=O)NC(C)(C)c2nc(C(=O)NCc3ccc(F)cc3)c(O)c(=O)n2C)o1 [Raltegravir (MK-0518)]
- inhibition of growth at 5 µM [1, 9]: 0.8%
- IC50 (S217Q PFV IN): 40 nM
- IC50 (WT PFV IN): 90 nM

SMILES: CCN1CCN(c2ccc(Nc3cc(N(C)C(=O)Nc4c(Cl)c(OC)cc(OC)c4Cl)ncn3)cc2)CC1 [BGJ398 (NVP-BGJ398)]
- inhibition of growth at 5 µM [1, 9]: -8.9%
- IC50 (FGFR1): 0.9 nM
- IC50 (FGFR3): 1 nM

SMILES: Cc1cc(C(=O)NOCCO)c(Nc2ccc(I)cc2F)n(C)c1=O [AZD8330]
- IC50 (MEK1/2): 7 nM
- inhibition of growth at 5 µM [1, 9]: -18.8%

SMILES: Cc1cc(Nc2cc(N3CCN(C)CC3)nc(/C=C/c3ccccc3)n2)n[nH]1 [ENMD-2076 L-(+)-Tartaric acid]
- IC50 (Flt4): 15.9 nM
- viability at 72 h (in vitro; preliminary screen, mean): 35.5%

SMILES: Cc1cc(Nc2cc(CN3CCOCC3)c3nc(C)c(Cc4ccc(Cl)cc4F)n3n2)n[nH]1 [LY2784544]
- inhibition of growth at 5 µM [1, 9]: 11.1%
- IC50 (V617F mutant JAK2): 55 nM
